# Values joined by “and” are separate entries in the source; they are usually repeats but may differ in a detail not shown here. Equal entries are not always repeated. Where two headings read alike, the source gives them in different places.
# Tests used:
# NPT2b = molecular target: T1, NPT2b (Homo sapiens, UniProt O95436); test: NPT2b inhibition (selectivity)
# T1 sequence (O95436 1-690): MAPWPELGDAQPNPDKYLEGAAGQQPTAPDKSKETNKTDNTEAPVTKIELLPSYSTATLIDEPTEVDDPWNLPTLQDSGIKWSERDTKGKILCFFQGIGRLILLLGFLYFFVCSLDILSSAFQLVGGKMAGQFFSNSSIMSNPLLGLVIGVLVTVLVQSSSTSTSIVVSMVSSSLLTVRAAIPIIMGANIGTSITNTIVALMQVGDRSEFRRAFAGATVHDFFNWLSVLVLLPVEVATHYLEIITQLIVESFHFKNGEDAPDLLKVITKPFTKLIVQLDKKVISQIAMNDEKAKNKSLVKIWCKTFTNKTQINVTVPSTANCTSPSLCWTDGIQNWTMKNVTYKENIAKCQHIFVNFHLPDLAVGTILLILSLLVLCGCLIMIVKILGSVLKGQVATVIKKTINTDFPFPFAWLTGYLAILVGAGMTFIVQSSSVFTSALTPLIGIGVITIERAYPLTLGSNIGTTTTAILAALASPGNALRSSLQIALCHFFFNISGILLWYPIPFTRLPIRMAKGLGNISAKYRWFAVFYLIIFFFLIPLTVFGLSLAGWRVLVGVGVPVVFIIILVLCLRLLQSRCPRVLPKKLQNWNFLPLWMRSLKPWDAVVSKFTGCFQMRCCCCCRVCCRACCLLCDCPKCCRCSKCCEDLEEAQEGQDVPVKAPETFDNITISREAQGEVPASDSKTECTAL
# Male Sprague-Dawley rats = test: Effect of Example 2 on sodium and phosphate absorption (urinary excretion after oral NaH2PO4 bolus); type: in vivo, rat; details: 4 h urine; for ED50: Rattus norvegicus, oral, NaH2PO4 bolus 690 mg/kg; for Ratio of Urinary-to-Dietary Phosphorus / Ratio of Urinary-to-Dietary Sodium: mean ± SEM
# Protocol: Effect of Example 2 on Sodium and Phosphate Absorption Urinary sodium and phosphate excretion following an oral bolus dose of sodium phosphate is an indirect measure of sodium and phosphate absorption in the intestine. Male Sprague-Dawley rats at an age of about 7 weeks with body weights ranging from 195 to 221 g are randomized into groups based on equal mean body weights. Example 2 at 0.3 mg/mL (final dose 3 mg/kg dosed in 10 mL/kg volume) is formulated by adding 1% HEC to a glass vial containing a pre-weighed amount of compound, and then probe sonicating until it appears as a uniform suspension. […] The subsequent dosing solutions of Example 2 are prepared by serial dilutions with 1% HEC. NaH2PO4 at 34.5 mg/ml (final dose 690 mg/kg dosed in 20 ml/kg volume) is formulated by adding sterile water. On the day of the study, the animals are placed into clean cages without food but with access to water for a 4 h fast before the study. Rats are orally dosed with vehicle or varying doses of Example 2. 15 min later, animals are dosed with sterile water or NaH2PO4, then immediately transferred to metabolic cages. Urine samples are collected for 4 h. Net urine volume is recorded. Urinary sodium, creatinine, and phosphate are assessed using a clinical biochemistry analyzer. Values expressed as the ratio of urinary-to-dietary phosphorus or sodium are calculated and presented as mean±SEM. Curves are fitted with a 4-parameter logistic curve fitting tool GraphPod Prism 6 to calculate the ED50. For the purpose of curve fitting, the dose of Example 2 is artificially set to 0.00001 mg/kg in the software for the vehicle-alone group.
# male Sprague Dawley rats = test: Intestinal phosphate retention: percent radiolabeled dose recovered in gastrointestinal tract; type: in vivo, rat; details: Example 2 0.4 mg/kg, 4 h after radiolabeled phosphate
# Protocol: The purpose of this study is to investigate in rats the effect of Example 2, Compound A, and an Example 2/Compound A combination on phosphate absorption 15 min after dosing the compounds and the phosphate retained in the intestine 4.25 h after dosing the compounds. The latter is a measure of the oral phosphate load which is absorbed over an extended period.
# Two vehicles are used in this study: 1) 1% HEC and 2) 0.46% poly-1-vinylpyrrolidone-co-vinyl acetate in water (PVP-VA vehicle). The vehicle control group in this study receives a 1:1 combination of the two vehicles.
# The Example 2, Compound A and phosphate dosing solutions are prepared similarly as described above, except the doses are 0.4 mg/kg for Example 2 and 10 mg/kg for Compound A and they are prepared at a concentration where they would be dosed in a 5 mL/kg volume. The Example 2 and Compound A alone groups are mixed 1:1 with the vehicle of the other compound, while the Compound A and Example 2 are mixed 1:1 prior to dosing. The final dosing volume is 10 mL/kg in all cases.
# 4 h after the radiolabeled phosphate solution is dosed, stomach, small intestine, large intestine, and feces are collected, weighed and digested with 1N NaOH overnight at 37° C. Radioactivity in each fraction is measured by scintillation counting.
# The percent dose recovered in gastrointestinal tract is defined as radioactivity recovered in stomach, small intestine, large intestine and feces compared to the amount dosed. Data is presented as mean±SEM with animal numbers equal to 8 for the groups. Statistical significance is determined by ANOVA with a Dunnett's comparison to the Example 2/Compound A combination using JMP 12.1.
# The percent dose recovered in gastrointestinal tract data is further analyzed by a two-way ANOVA in JMP 12.1 to test for additivity of the effects of Example 2 and Compound A on inhibiting phosphate absorption. […] That is, the inhibitory effect of the combination is greater than the sum of the individual compound effects.
smiles,measurement,setting,value
"CN1Cc2c(Cl)cc(Cl)cc2[C@H](c2cccc(S(=O)(=O)NCCOCCOCCN/C(=N\C(N)=O)NCCCCN/C(=N/C(N)=O)NCCOCCOCCNS(=O)(=O)c3cccc([C@@H]4CN(C)Cc5c(Cl)cc(Cl)cc54)c3)c2)C1.Cl.Cl [Example 2, [[4-[[N′-Carbamoyl-N-[2-[2-[2-[[3-[(4S)-6,8-dichloro-2-methyl-3,4-dihydro-1H-isoquinolin-4-yl]phenyl]sulfonylamino]ethoxy]ethoxy]ethyl]carbamimidoyl]amino]butylamino]-[2-[2-[2-[[3-[(4S)-6,8-dichloro-2-methyl-3,4-dihydro-1H-isoquinolin-4-yl]phenyl]sulfonylamino]ethoxy]ethoxy]ethylamino]methylene]urea dihydrochloride]",IC50,NPT2b,58.4 µM
same,ED50,Male Sprague-Dawley rats; read-out: ED50 on sodium excretion,0.058 mg/kg
same,ED50,Male Sprague-Dawley rats; read-out: ED50 on urinary phosphorus excretion,0.041 mg/kg
same,Ratio of Urinary-to-Dietary Phosphorus,Male Sprague-Dawley rats; oral 0.001 mg/kg,0.337 ± 0.017
same,Ratio of Urinary-to-Dietary Sodium,Male Sprague-Dawley rats; oral 0.001 mg/kg,0.326 ± 0.042
same,Ratio of Urinary-to-Dietary Phosphorus,Male Sprague-Dawley rats; oral 0.003 mg/kg,0.350 ± 0.023
same,Ratio of Urinary-to-Dietary Sodium,Male Sprague-Dawley rats; oral 0.003 mg/kg,0.413 ± 0.055
same,Ratio of Urinary-to-Dietary Phosphorus,Male Sprague-Dawley rats; oral 0.01 mg/kg,0.320 ± 0.042
same,Ratio of Urinary-to-Dietary Sodium,Male Sprague-Dawley rats; oral 0.01 mg/kg,0.290 ± 0.06
same,Ratio of Urinary-to-Dietary Phosphorus,Male Sprague-Dawley rats; oral 0.03 mg/kg,0.268 ± 0.04
same,Ratio of Urinary-to-Dietary Sodium,Male Sprague-Dawley rats; oral 0.03 mg/kg,0.276 ± 0.06
same,Ratio of Urinary-to-Dietary Phosphorus,Male Sprague-Dawley rats; oral 0.1 mg/kg,0.197 ± 0.045
same,Ratio of Urinary-to-Dietary Sodium,Male Sprague-Dawley rats; oral 0.1 mg/kg,0.105 ± 0.042
same,Ratio of Urinary-to-Dietary Phosphorus,Male Sprague-Dawley rats; oral 0.3 mg/kg,0.168 ± 0.027
same,Ratio of Urinary-to-Dietary Sodium,Male Sprague-Dawley rats; oral 0.3 mg/kg,0.039 ± 0.010
same,Ratio of Urinary-to-Dietary Phosphorus,Male Sprague-Dawley rats; oral 1 mg/kg,0.191 ± 0.039
same,Ratio of Urinary-to-Dietary Sodium,Male Sprague-Dawley rats; oral 1 mg/kg,0.051 ± 0.027
same,Ratio of Urinary-to-Dietary Phosphorus,Male Sprague-Dawley rats; oral 3 mg/kg,0.144 ± 0.009
same,Ratio of Urinary-to-Dietary Sodium,Male Sprague-Dawley rats; oral 3 mg/kg,0.022 ± 0.009
same,"Percent Dose Recovered, Feces",male Sprague Dawley rats,<0.1%
same,"Percent Dose Recovered, Large Intestine",male Sprague Dawley rats; mean ± SEM,18.16 ± 2.58%
same,"Percent Dose Recovered, Small Intestine",male Sprague Dawley rats; mean ± SEM,8.64 ± 0.32%
same,"Percent Dose Recovered, Stomach",male Sprague Dawley rats; mean ± SEM,3.9 ± 0.49%
same,"Percent Dose Recovered, Total","male Sprague Dawley rats; mean ± SEM, dihydrochloride, 0.4 mg/kg",31% and 30.7 ± 2.43%

# — patent publication US12428377B2, “Sodium-hydrogen exchanger 3 inhibitor compounds” (Eli Lilly and Company, priority 2019, dated 2025)
